Measurements: US7521448B2, “N-substituted benzimidazolyl c-Kit inhibitors” (OSI Pharmaceuticals, Inc., priority 2003, dated 2009)
Counter-ions that a name gives are not always drawn.

Legend:
[1] = biological target: T1, wild-type c-Kit receptor protein endogenously expressed in H526 cells (Homo sapiens, UniProt P10721); test: Assay for inhibition of c-Kit in intact cells (cell-based ELISA of SCF-induced tyrosine phosphorylation); conditions: read-out: results in the assay above (IC50, inhibition of SCF-induced tyrosine phosphorylation of c-Kit)
T1 construct: wild-type c-Kit receptor protein that is endogenously expressed in H526 cells; host or cells: H526 human small cell lung cancer cells
T1 sequence (P10721 26-976): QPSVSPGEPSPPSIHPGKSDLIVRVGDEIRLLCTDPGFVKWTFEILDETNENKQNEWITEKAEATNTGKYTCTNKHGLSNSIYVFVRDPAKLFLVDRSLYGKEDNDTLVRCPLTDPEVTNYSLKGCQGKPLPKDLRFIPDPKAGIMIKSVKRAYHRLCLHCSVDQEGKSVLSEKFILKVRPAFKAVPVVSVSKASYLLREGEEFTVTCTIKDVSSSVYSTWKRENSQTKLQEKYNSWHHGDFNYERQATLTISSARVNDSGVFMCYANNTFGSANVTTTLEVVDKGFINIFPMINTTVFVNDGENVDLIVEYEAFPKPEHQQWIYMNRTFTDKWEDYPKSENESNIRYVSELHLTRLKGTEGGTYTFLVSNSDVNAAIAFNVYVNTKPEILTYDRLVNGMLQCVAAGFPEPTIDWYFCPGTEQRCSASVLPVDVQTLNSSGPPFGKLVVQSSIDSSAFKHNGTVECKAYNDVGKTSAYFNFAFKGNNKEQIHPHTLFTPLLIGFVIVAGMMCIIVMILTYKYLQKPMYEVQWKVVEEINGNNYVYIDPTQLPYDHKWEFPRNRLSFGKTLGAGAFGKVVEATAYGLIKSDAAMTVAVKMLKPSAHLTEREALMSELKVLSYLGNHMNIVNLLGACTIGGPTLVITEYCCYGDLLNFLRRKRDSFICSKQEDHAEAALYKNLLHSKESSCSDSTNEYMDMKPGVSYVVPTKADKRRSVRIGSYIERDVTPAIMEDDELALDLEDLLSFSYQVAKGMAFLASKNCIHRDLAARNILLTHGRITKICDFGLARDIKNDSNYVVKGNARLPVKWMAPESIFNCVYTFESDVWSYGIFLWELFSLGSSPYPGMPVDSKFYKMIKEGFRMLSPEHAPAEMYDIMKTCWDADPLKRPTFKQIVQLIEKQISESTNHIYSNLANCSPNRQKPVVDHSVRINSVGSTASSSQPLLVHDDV
Protocol: I. Assay for Inhibition of c-Kit in Intact Cells
The ability of compounds to inhibit the tyrosine kinase activity of c-Kit was determined in a cell-based ELISA assay using the H526 cell line (ATCC # CRL-5811), which was originally derived from a human small cell lung cancer. The assay determines the ability of compounds to block ligand-stimulated tyrosine phosphorylation of the wild-type c-Kit receptor protein that is endogenously expressed in H526 cells. Cells are pre-incubated with compounds at various concentrations prior to addition of stem cell factor (SCF), the ligand for the c-Kit receptor tyrosine kinase. […] The phosphotyrosine content of the receptor protein is then monitored by quantitation of the degree of binding of an antibody that recognizes only the phosphorylated tyrosine residues within the captured protein. The antibody used has a reporter enzyme (e.g. horseradish peroxidase, HRP) covalently attached, such that binding of antibody to phosphorylated c-Kit can be determined quantitatively by incubation with an appropriate HRP substrate. […]
Comparison of the assay signals obtained in the presence of compound with those of the positive and negative controls (cells incubated in the presence or absence of SCF, with no compound added), allows the degree of inhibition of c-Kit receptor tyrosine phosphorylation to be determined over a range of compound concentrations. […]

[2] = tested on: MO7e human leukemia cells; conditions: cited from earlier work
[3] = tested on: MO7e human leukemia cells; conditions: cited from earlier work; remark: listed apart in the source

| Compound | IC50 [1] | GM-CSF stimulated growth of MO7e human leukemia cells [2] | Kit ligand-stimulated growth of MO7e human leukemia cells ([3]; Kit ligand-stimulated) | apoptosis ([3]; under Kit ligand-stimulated conditions, MO7e cells) |
| --- | --- | --- | --- | --- |
| O=C(NCc1cccnc1)c1ccc2c(c1)ncn2-c1ccc(OCCOc2ncc(C(F)(F)F)cc2Cl)cc1 [Compound H13, N-Pyridin-3-ylmethyl-1-{4-[2-(3-chloro-5-trifluoromethylpyridin-2-yloxy)ethoxy]phenyl}-1H-benzimidazole-5-carboxamide] | > 10 µM | – | – | – |
| O=C(NCc1cccnc1)c1ccc2c(c1)ncn2-c1cccc(NS(=O)(=O)c2cccc(Cl)c2)c1 [Compound Q5, 1-(3-{[(3-Chlorophenyl)sulfonyl]amino}phenyl)-N-pyridin-3-ylmethyl-1H-benzimidazole-5-carboxamide] | > 10 µM | – | – | – |
| Cc1ccc(NC(=O)c2ccc(CN3CCN(C)CC3)cc2)cc1Nc1nccc(-c2cccnc2)n1 [Gleevec™, imatinib mesylate] | – | not affected | inhibited | induces apoptosis |
